Where two headings read alike, the source gives them in different places.

Experiment [1] has as its system Plasmopara viticola. Kind of experiment: whole plant or invertebrate. Type of experiment: in vivo. The conditions noted are these: read-out: Observed activity (%).
For experiment [2], the system named is Phytophthora infestans. The experiment can be described thus: whole plant or invertebrate. Type of experiment: in vivo. The conditions noted are these: 144 h, read-out: Efficacy in % of the untreated control.
The subject of a further experiment is Pyricularia oryzae. The experiment can be described thus: microbe, parasite or virus in culture. Type of experiment: cell-based. The conditions noted are these: Pyricularia oryzae, read-out: Observed activity (%).
The subject of the next experiment is Septoria tritici. The experiment can be described thus: Activity against the speckled leaf blotch pathogen Septoria tritici in the microtiter test. Type of experiment: cell-based. The conditions noted are these: single active compound.
Experiment [3] concerns Plasmopara viticola. The experiment can be described thus: whole plant or invertebrate. Type of experiment: in vivo. The conditions noted are these: read-out: Observed activity (%). The source holds these as a separate data set.
Experiment [4] has as its system Phytophthora infestans. Kind of experiment: whole plant or invertebrate. Type of experiment: in vivo. The conditions noted are these: Phytophthora infestans, read-out: Observed activity (%).
The test system of experiment [5] is Phytophthora infestans. Kind of experiment: microbe, parasite or virus in culture. Type of experiment: cell-based. The conditions noted are these: Phytophthora infestans, read-out: Observed activity (%).
In the next experiment the test system is Botrytis cinerea. The experiment can be described thus: Activity against the gray mold pathogen Botrytis cinerea in the microtiter test. The conditions noted are these: Botrytis cinerea, single active compound, read-out: Observed activity (%); for inhibition at […]: Conc. 0.063 mg/l. Type of experiment: cell-based.

For the compound `COc1ccc(C(=CC(=O)N2CCOCC2)c2ccc(Cl)cc2)cc1OC` [dimethomorph, 3-(4-chlorophenyl)-3-(3,4-dimethoxyphenyl)-1-morpholin-4-ylpropenone, reference compound], in the experiment on Plasmopara viticola [1], the inhibition at 16 µg/mL came to 67%. Moreover, the pest or weed control at 4 ppm in the experiment on Phytophthora infestans [2] turned out to be 33%.

On to `CCNC(=O)NC(=O)C(C#N)=NOC` [cymoxanil, 1-(2-cyano-2-methoxyiminoacetyl)-3-ethylurea, reference compound], for which the inhibition at 16 µg/mL with Pyricularia oryzae turned out to be 12%; in the experiment on Plasmopara viticola [1], 33%.

On to `CCC(=O)C1=C([O-])CC(C(=O)[O-])CC1=O.[Ca+2]` (stereo not shown) [prohexadione-Ca, reference compound], for which the “Observed activity (%)” value in the experiment with Septoria tritici (0.25 mg/l) was determined as 5%.

In the case of `CCCCCCCCc1c(CC)nc2ncnn2c1N` [Compound I-110, 5-ethyl-6-octyl-[1,2,4]triazolo[1,5-a]pyrimidin-7-ylamine], the inhibition at 0.25 µg/mL is 0% in the experiment on Plasmopara viticola [3], 5% in the experiment with Phytophthora infestans [5] and 18% with Botrytis cinerea (Conc. 0.25 mg/l). In addition, the inhibition at 4 µg/mL is 0% in the experiment on Plasmopara viticola [3], 0% with Plasmopara viticola [1] and 11% with Phytophthora infestans [4]. Besides, in the experiment with Pyricularia oryzae, the inhibition at 16 µg/mL is 8%. Besides, in the experiment with Phytophthora infestans [5], the inhibition at 0.016 µg/mL was 1%. Further, the inhibition at 1 µg/mL in the experiment with Phytophthora infestans [5] was 59%. The inhibition at […] in the experiment with Phytophthora infestans [5] came out at 3%; in the experiment on Botrytis cinerea, 8%.

Take `CCCCCCCCc1c(CC)nc2nc(N)nn2c1N` [Compound I-120, 5-ethyl-6-octyl-[1,2,4]triazolo[1,5-a]pyrimidine-2,7-diamine]: the inhibition at 16 µg/mL in the experiment with Pyricularia oryzae came out at 25%; in the experiment with Botrytis cinerea (Conc. 16 mg/l), 15%. In addition, the inhibition at […] in the experiment on Septoria tritici (Zymoseptoria tritici, 0.063 mg/l, read-out: Observed activity (%)) is 0%; in the experiment on Phytophthora infestans [5], 2%; with Botrytis cinerea, 0%. Moreover, in the experiment on Phytophthora infestans [2], the pest or weed control at 16 ppm stood at 33%. Further, the inhibition at 0.016 µg/mL with Phytophthora infestans [5] was determined as 0%. Further, the inhibition at 0.25 µg/mL in the experiment on Phytophthora infestans [5] amounted to 6%. In addition, in the experiment with Botrytis cinerea (Conc. 1 mg/l), the inhibition at 1 µg/mL came to 9%.

For the origin of these results see patent publication US8679514B2, “Fungicidal mixtures based on azolopyrimidinylamines” (BASF SE, priority 2005, dated 2014).
